Laboratory results taken from ChEMBL document CHEMBL5584216, “Expanded library of novel 2,3-pyrrolidinedione analogues exhibit anti-biofilm activity” (2024).

Tests used:
Assay type in all cases: functional
[1] = tested on: Staphylococcus aureus; experiment: Antibiofilm activity against methicillin-sensitive Staphylococcus aureus ATCC 25923 assessed as biofilm eradication at pH 9.0
[2] = tested on: Staphylococcus aureus; experiment: Antibiofilm activity against methicillin-resistant Staphylococcus aureus ATCC BAA-44 at 5 uM relative to control
[3] = tested on: Staphylococcus aureus; experiment: Antimicrobial activity against methicillin-sensitive Staphylococcus aureus ATCC 25923 assessed as reduction in microbial growth at pH 9.0
[4] = tested on: Staphylococcus aureus; experiment: Antibiofilm activity against methicillin-resistant Staphylococcus aureus ATCC BAA-44 at 40 uM relative to control
[5] = tested on: Staphylococcus aureus; experiment: Antimicrobial activity against methicillin-resistant Staphylococcus aureus ATCC 33591 assessed as reduction in microbial growth

| SMILES | MBEC [1] [µg/mL] | Activity [2] [%] | MIC [3] [µg/mL] | Activity [4] [%] | MIC [5] [µg/mL] |
| --- | --- | --- | --- | --- | --- |
| CCC1C(c2ccc(C(F)(F)F)cc2)=C(O)C(=O)N1c1ccc(F)cc1 (stereo not given) | 128 | 22 | 16 | 81 | 16 |
| CCC1C(c2ccc(C(F)(F)F)cc2)=C(O)C(=O)N1Cc1ccc(OC)cc1OC (stereo not given) | >512 | 63 | > 256 | 57 | > 128 |
| CCCCCN1C(=O)C(O)=C(c2ccc(C(F)(F)F)cc2)C1CC (stereo not given) | 256 | 58 | 32 | 63 | 16 |
| O=C1C(O)=C(c2ccc(C(F)(F)F)cc2)CN1c1ccccc1 | 512 | 26 | > 256 | 8 | > 128 |
| CCC1C(c2ccc(C(F)(F)F)cc2)=C(O)C(=O)N1c1ccc(Br)cc1 (stereo not given) | 128 | 34 | 32 | 72 | 32 |
| CCC1C(c2ccc(C(F)(F)F)cc2)=C(O)C(=O)N1CCC(C)C (stereo not given) | >512 | 47 | 64 | 43 | > 128 |
| CC(C)C1C(c2ccc(C(F)(F)F)cc2)=C(O)C(=O)N1c1ccccc1 (stereo not given) | 512 | -5 | 16 | 3 | > 128 |
| CCC1C(c2ccc(C(F)(F)F)cc2)=C(O)C(=O)N1Cc1cccs1 (stereo not given) | 128 | 54 | 32 | 79 | > 128 |
| CCCCCCCN1C(=O)C(O)=C(c2ccc(C(F)(F)F)cc2)C1CC (stereo not given) | >512 | 64 | 32 | 59 | 64 |
| CCC1C(c2ccc(C(F)(F)F)cc2)=C(O)C(=O)N1c1ccc(OC)c(OC)c1 (stereo not given) | >512 | 17 | 64 | 70 | > 128 |
| CC1C(c2ccc(C(F)(F)F)cc2)=C(O)C(=O)N1c1ccccc1 (stereo not given) | 256 | -26 | 16 | 72 | 32 |
| CCC1C(c2ccc(C(F)(F)F)cc2)=C(O)C(=O)N1c1ccccn1 (stereo not given) | 128 | 4 | 32 | 31 | > 128 |
| CCCCCCN1C(=O)C(O)=C(c2ccc(C(F)(F)F)cc2)C1CC (stereo not given) | 512 | 59 | 32 | 85 | 16 |
| CCC1C(c2ccc(C(F)(F)F)cc2)=C(O)C(=O)N1c1ccccc1 (stereo not given) | 128 | 5 | 16 | 85 | 16 |
| CCC1C(c2ccc(C(F)(F)F)cc2)=C(O)C(=O)N1CCc1ccccc1 (stereo not given) | 256 | 23 | 64 | 45 | > 128 |
